Consider 17 compounds from article PMC5319851 (Bioorganic & medicinal chemistry, 2016).

By IC50 is commonly meant the concentration needed to halve the response being measured.

Bounds are passed on as bounds.

The target in one data set is RpMetAP1 (Rickettsia prowazekii, UniProt Q9ZCD3).
RpMetAP1, sequence (Q9ZCD3 whole entry, looked up): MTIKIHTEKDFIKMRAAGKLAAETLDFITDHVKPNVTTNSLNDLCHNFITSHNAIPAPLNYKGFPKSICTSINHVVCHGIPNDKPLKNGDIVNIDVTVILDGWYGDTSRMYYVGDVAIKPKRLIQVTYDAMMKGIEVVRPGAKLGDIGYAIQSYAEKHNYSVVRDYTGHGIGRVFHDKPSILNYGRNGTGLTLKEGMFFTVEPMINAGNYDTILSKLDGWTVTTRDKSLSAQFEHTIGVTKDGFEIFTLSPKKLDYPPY
Details: not given
Consider `Cc1ccc2cccc(O)c2n1` [Compound 20, 2-methyl-8-quinolinol], for which the “Hill Slope (quinolinol species)” value came to 1.1 ± 0.1. As to `Cc1cccc(-c2ccc(C(=O)O)o2)c1` [Compound 9], the “Hill Slope (furoic acid species)” value was 1.0 ± 0.1.

As for `Cc1ccccc1-c1ccc(C(=O)O)o1` [Compound 8], the “Hill Slope (furoic acid species)” value was 1.3 ± 0.1. With `O=C(O)c1ccc(-c2cccc(C(F)(F)F)c2)o1` [Compound 3], the “Hill Slope (furoic acid species)” value amounted to 1.0 ± 0.1.

Regarding `Cc1ccc(-c2ccc(C(=O)O)o2)cc1` [Compound 5], the “Hill Slope (furoic acid species)” value is on record as 1.0 ± 0.1. On to `O=[N+]([O-])c1ccc(O)c2ncccc12` [Compound 23, nitroxoline, reference compound], for which the “Hill Slope (quinolinol species)” value was 1.7 ± 0.5.

Consider `O=C(O)c1ccc(-c2ccccc2C(F)(F)F)o1` [Compound 6], for which the “Hill Slope (furoic acid species)” value is 2.1 ± 0.1.

As to `O=[N+]([O-])c1cc(CN2CCOCC2)c(O)c2ncccc12` [Compound 26], the “Hill Slope (quinolinol species)” value amounted to 1.0 ± 0.1. Turning to `O=C(O)c1ccc(-c2ccccc2)o1` [Compound 4, 5-phenyl-2-furoic acid], the “Hill Slope (furoic acid species)” value is on record as 1.0 ± 0.1. As to `Oc1c(CN2CCOCC2)cc(Cl)c2cccnc12` [Compound 24], the “Hill Slope (quinolinol species)” value was 1.5 ± 0.1. Consider `Oc1ccc(Cl)c2cccnc12` [Compound 22, 5-chloro-8-quinolinol], for which the “Hill Slope (quinolinol species)” value is 1.9 ± 0.2. For the compound `O=C(O)c1ccc(-c2cccc([N+](=O)[O-])c2)o1` [Compound 2], the “Hill Slope (furoic acid species)” value is 1.0 ± 0.1. Still for that read-out and setting: the figure for `O=C(O)c1ccc(-c2ccc(Br)cc2)o1` [Compound 7] is 1.0 ± 0.1.

The next data set has as its system HsMetAP1. As to conditions: read-out: HsMetAP1 IC50; cited from earlier work.
As to `Cc1ccc2cccc(O)c2n1` [Compound 20, 2-methyl-8-quinolinol], the 50% inhibitory concentration (IC50) was more than 15 µM.

Turning to `CC(C)(C)c1ccc(CSc2nnc(N)[nH]2)cc1` [Compound 19], the IC50 is more than 15 µM.

The test system of the next data set is primary pulmonary vascular endothelial cells (ECs).
Details: not given
In the case of `Nc1n[nH]c(SCc2ccccc2)n1` [Compound 12], the “Host EC metabolism (WST-1) of uninfected ECs” value (“Host EC metabolism” below) is reported as “stimulated EC metabolism”. With `Nc1n[nH]c(SCc2ccccc2Cl)n1` [Compound 15], the “Host EC metabolism” value was “stimulated EC metabolism”. Turning to `Nc1nnc(SCc2ccc(Cl)cc2)[nH]1` [Compound 16], the “Effect of compound alone on appearance of EC monolayers” value was “no overt effect on the appearance of the monolayers” and the “Host EC metabolism” value is on record as “stimulated EC metabolism”.

In the next data set the test system is HsMetAP2. As to conditions: read-out: HsMetAP2 IC50; cited from earlier work.
As for `Cc1ccc2cccc(O)c2n1` [Compound 20, 2-methyl-8-quinolinol], the IC50 is 2.03 ± 0.3 µM. Consider `CC(C)(C)c1ccc(CSc2nnc(N)[nH]2)cc1` [Compound 19], for which the IC50 was more than 15 µM.
